The values that follow come from patent US20240390471A1, “COMPOUNDS AND ADJUVANT FORMULATIONS USEFUL IN PNEUMOCOCCAL VACCINES” (Merck Sharp & Dohme LLC, priority 2023, published 2024).

For one experiment, the target named is T1, human TLR7 (Homo sapiens, UniProt Q9NYK1).
T1 construct: host or cells: HEK-Blue 293 cells expressing human TLR7
T1 sequence (Q9NYK1 27-1049): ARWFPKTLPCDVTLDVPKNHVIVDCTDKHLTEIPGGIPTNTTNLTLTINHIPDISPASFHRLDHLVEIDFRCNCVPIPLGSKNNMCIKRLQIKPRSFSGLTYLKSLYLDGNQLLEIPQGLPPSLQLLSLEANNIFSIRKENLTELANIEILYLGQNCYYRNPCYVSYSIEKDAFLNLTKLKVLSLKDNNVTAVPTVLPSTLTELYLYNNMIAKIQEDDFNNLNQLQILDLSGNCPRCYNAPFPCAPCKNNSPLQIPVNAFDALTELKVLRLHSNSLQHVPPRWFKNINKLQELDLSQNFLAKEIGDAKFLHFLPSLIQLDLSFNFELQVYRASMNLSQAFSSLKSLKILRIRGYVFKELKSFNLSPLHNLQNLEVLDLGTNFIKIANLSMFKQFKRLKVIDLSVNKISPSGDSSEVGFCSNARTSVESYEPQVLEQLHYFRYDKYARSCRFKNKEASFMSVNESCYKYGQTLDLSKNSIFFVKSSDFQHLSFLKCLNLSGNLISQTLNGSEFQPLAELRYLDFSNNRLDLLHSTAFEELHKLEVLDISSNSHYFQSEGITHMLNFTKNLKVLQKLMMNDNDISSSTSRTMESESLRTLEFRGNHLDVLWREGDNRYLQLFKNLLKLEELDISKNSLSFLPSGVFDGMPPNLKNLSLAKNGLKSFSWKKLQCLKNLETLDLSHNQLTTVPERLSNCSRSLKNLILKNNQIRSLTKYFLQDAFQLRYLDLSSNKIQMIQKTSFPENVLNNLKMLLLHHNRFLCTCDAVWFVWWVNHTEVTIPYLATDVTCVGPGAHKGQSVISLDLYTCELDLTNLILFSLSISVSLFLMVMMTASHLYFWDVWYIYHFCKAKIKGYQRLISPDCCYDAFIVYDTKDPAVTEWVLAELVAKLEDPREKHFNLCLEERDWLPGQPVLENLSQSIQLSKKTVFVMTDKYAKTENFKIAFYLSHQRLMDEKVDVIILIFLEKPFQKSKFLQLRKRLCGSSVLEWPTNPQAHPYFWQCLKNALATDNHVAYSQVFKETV
The experiment is described as follows: Cell-based TLR 7/8 assay, HEK-Blue TLR7 cells (SEAP reporter). Particulars: based on Compound concentration only; Compounds formulated as SNEs; read-out: huTLR7 EC50 (converted). As for the experimental part:
(§1) HEK-Blue™ TLR7 and TLR8 cells (InvivoGen) were designed to assess the stimulation of TLR7 and TLR8 by monitoring the activation of NF-κB and AP-1. Compound B-1-SNE samples were diluted 1:2 across an 8-point titration in diluent buffer histidine/PS-20 in a sterile V-bottom plate. 20 μL of samples were transferred to corresponding wells of two flat bottom assay plates. Media was aspirated from HEK-Blue™ human TLR 7 and TLR 8 cells (T-75 flasks) and gently rinsed with pre-warmed (37° C.) DPBS for a total volume of 5 mL/flask. The DPBS was gently removed from the cells and cells were gently manually dislodged and resuspended in 2 mL of DPBS. Cell assay suspensions were then prepared at approximately 2.2×10^5 cells per mL of HEK-Blue™ detection medium (InvivoGen). 180 μL of cell suspension in detection medium was added to each well of the two flat bottom assay plates containing the diluted Compound B-1-SNE samples for a final dilution of sample equaling 1:10 (180 μL of cell suspension in detection medium and 20 μL of sample). The cells were then incubated at 37° C. in 5% CO2 for 20 hrs. The reporter gene, NF-Kb, induces the production of secreted embryonic alkaline phosphatase (SEAP) when stimulated and can be monitored using the vendor supplied SEAP detection kit. SEAP colorimetric changes were read at an absorbance of 640 nm using a SpectroMax Stakmax plate reader. […] EC50 values were calculated based on total Compound B-1-SNE concentration using GraphPad Prism Software and analyzed using agonist vs. response variable slope (four parameters) least squares fit.
(§2) Further to the description in Example 10, a cell-based activation system was used to assess activity of the Compound-formulated nanoemulsion systems, prepared as described in examples, supra. HEK-Blue™ TLR7 and TLR8 cells (InvivoGen) were designed to assess the stimulation of TLR7 and TLR8 by monitoring the activation of NF-κB and AP-1. Compound-SNE samples were diluted 1:2 across an 8-point titration in diluent buffer histidine/PS-20 in a sterile V-bottom plate. 20 μL of samples were transferred to corresponding wells of two flat bottom assay plates. Media was aspirated from HEK-Blue™ human TLR 7 and TLR 8 cells (T-75 flasks) and gently rinsed with pre-warmed (37° C.) DPBS for a total volume of 5 mL/flask. The DPBS was gently removed from the cells and cells were gently manually dislodged and resuspended in 2 mL of DPBS. Cell assay suspensions were then prepared at approximately 2.2×10^5 cells per mL of HEK-Blue™ detection medium (InvivoGen). 180 μL of cell suspension in detection medium was added to each well of the two flat bottom assay plates containing the diluted Compound-SNE samples for a final dilution of sample equaling 1:10 (180 μL of cell suspension in detection medium and 20 μL of sample). The cells were then incubated at 37° C. in 5% CO2 for 20 hrs. The reporter gene, NF-Kb, induces the production of secreted embryonic alkaline phosphatase (SLAP) when stimulated and can be monitored using the vendor supplied SLAP detection kit. SLAP colorimetric changes were read at an absorbance of 640 nm using a SpectroMax Stakmax plate reader. EC50s were calculated based on Compound concentration only, not total Compound-SNE concentration (Table 6) using GraphPad Prism Software and analyzed using agonist vs. response variable slope (four parameters) least squares fit.

For another experiment, the target named is T2, human TLR8 (Homo sapiens, UniProt Q9NR97).
T2 construct: host or cells: HEK-Blue 293 cells expressing human TLR8
T2 sequence (Q9NR97 27-1041): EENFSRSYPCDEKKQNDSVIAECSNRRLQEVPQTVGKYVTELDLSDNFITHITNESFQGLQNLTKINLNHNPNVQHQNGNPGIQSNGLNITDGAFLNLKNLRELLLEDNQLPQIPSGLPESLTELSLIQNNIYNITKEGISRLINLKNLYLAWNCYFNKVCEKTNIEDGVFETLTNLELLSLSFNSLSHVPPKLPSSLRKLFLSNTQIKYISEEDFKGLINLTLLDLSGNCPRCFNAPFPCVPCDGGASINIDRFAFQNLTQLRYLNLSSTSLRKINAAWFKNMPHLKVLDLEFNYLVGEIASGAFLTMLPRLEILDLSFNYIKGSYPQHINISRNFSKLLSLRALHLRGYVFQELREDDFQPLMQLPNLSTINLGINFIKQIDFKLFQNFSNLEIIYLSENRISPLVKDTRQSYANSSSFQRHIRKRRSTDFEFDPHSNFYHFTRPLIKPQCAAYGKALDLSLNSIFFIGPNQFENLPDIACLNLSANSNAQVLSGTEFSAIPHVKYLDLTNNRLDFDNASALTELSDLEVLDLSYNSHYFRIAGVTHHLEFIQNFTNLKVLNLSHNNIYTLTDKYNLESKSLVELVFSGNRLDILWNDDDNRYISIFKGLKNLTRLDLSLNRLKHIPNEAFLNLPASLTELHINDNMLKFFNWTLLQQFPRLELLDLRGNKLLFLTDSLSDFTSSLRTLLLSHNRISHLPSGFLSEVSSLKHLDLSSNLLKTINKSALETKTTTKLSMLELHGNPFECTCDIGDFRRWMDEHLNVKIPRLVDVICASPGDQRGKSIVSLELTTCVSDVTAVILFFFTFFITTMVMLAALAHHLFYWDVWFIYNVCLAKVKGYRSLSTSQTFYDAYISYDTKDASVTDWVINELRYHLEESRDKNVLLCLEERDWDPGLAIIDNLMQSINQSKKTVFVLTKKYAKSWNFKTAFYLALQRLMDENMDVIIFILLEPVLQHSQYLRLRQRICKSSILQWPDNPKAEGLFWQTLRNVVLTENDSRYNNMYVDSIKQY
The experiment is described as follows: Cell-based TLR 7/8 assay, HEK-Blue TLR8 cells (SEAP reporter). Particulars: based on Compound concentration only; Compounds formulated as SNEs; read-out: huTLR8 EC50 (converted). As for the experimental part: as §1, §2

As usually defined, the EC50 is the concentration at which the effect is half-maximal. As for `CCCCCCCCCCCCCCCCNC(=O)[C@H]1C[C@@H](CC(=O)N2CCN(c3ccc(Cn4cc5nc(N)nc(NCCCC)c5n4)c(OC)c3)CC2)C1` [Compound B-10, (1s,3s)-3-(2-(4-(4-((5-amino-7-(butylamino)-2H-pyrazolo[4,3-d]pyrimidin-2-yl)methyl)-3-methoxyphenyl)piperazin-1-yl)-2-oxoethyl)-N-hexadecylcyclobutane-1-carboxamide], the 50% effective concentration (EC50) is 117000 nM at human TLR7 and 73600 nM at human TLR8.

Regarding `CCCCCCCCCCCCCCCCCC(=O)NCCC(=O)N1CCN(c2ccc(Cn3cc4nc(N)nc(NCCCC)c4n3)c(OC)c2)CC1` [Compound B-11, N-(3-(4-(4-((5-amino-7-(butylamino)-2H-pyrazolo[4,3-d]pyrimidin-2-yl)methyl)-3-methoxyphenyl)piperazin-1-yl)-3-oxopropyl)stearamide], the half-maximal effective concentration (EC50) was 3070 nM at human TLR7 and 401 nM at human TLR8.

In the case of `CCCCCCCCCCCCCCCCCC(=O)NCCCCCCC(=O)N1CCN(c2ccc(Cn3cc4nc(N)nc(NCCCC)c4n3)c(OC)c2)CC1` [Compound B-12, N-(7-(4-(4-((5-amino-7-(butylamino)-2H-pyrazolo[4,3-d]pyrimidin-2-yl)methyl)-3-methoxyphenyl)piperazin-1-yl)-7-oxoheptyl)stearamide], the results for the EC50 on human TLR7 and on human TLR8 were 23400 nM and 25500 nM, respectively.

As to `CCCCCCCCCCCCCCCCCC(=O)NC1CC(CC(=O)N2CCN(c3ccc(Cn4cc5nc(N)nc(NCCCC)c5n4)c(OC)c3)CC2)C1` (stereo not shown) [Compound B-13, N-(3-(2-(4-(4-((5-amino-7-(butylamino)-2H-pyrazolo[4,3-d]pyrimidin-2-yl)methyl)-3-methoxyphenyl)piperazin-1-yl)-2-oxoethyl)cyclobutyl)stearamide], the 50% effective concentration (EC50) at human TLR7 is 85900 nM; at human TLR8 it was 3020 nM.

For the compound `CCCCCCCCCCCCCCCCCC(=O)NCCCC(C)(C)C(=O)N1CCN(c2ccc(Cn3cc4nc(N)nc(NCCCC)c4n3)c(OC)c2)CC1` [Compound B-14, N-(5-(4-(4-((5-amino-7-(butylamino)-2H-pyrazolo[4,3-d]pyrimidin-2-yl)methyl)-3-methoxyphenyl)piperazin-1-yl)-4,4-dimethyl-5-oxopentyl)stearamide], the EC50 at human TLR7 was 135000 nM; on human TLR8, 11900 nM.

Consider `CCCCCCCCCCCCCCCCCC(=O)NCCCCC(=O)N1CCN(c2ccc(Cn3nc4c(NCCCC)nc(N)nc4c3C)c(OC)c2)CC1` [Compound B-18, N-(5-(4-(4-((5-amino-7-(butylamino)-3-methyl-2H-pyrazolo[4,3-d]pyrimidin-2-yl)methyl)-3-methoxyphenyl)piperazin-1-yl)-5-oxopentyl)stearamide], for which the half-maximal effective concentration (EC50) at human TLR7 is 316 nM; on human TLR8, 215 nM.

As to `CCCCC/C=C\C/C=C\CCCCCCCC(=O)NCCCCN(C)Cc1cc(OC)c(Cn2cc3nc(N)nc(NCCCC)c3n2)c(OC)c1` [Compound C-1, (9Z,12Z)—N-(4-((4-((5-amino-7-(butylamino)-2H-pyrazolo[4,3-d]pyrimidin-2-yl)methyl)-3,5-dimethoxybenzyl)(methyl)amino)butyl)octadeca-9,12-dienamide], the EC50 on human TLR7 is 259 nM; on human TLR8, 95.5 nM.

Consider `CCCCCCCCCCCCCC(=O)NCCCCN(C)Cc1cc(OC)c(Cn2cc3nc(N)nc(NCCCC)c3n2)c(OC)c1` [Compound C-2, N-(4-((4-((5-amino-7-(butylamino)-2H-pyrazolo[4,3-d]pyrimidin-2-yl)methyl)-3,5-dimethoxybenzyl)(methyl)amino)butyl)tetradecanamide], for which the EC50 at human TLR7 was 338 nM; at human TLR8, 176 nM.

For `CCCCCCCC/C=C\CCCCCCCC(=O)NCCCCN(C)Cc1cc(OC)c(Cn2cc3nc(N)nc(NCCCC)c3n2)c(OC)c1` [Compound C-3, N-(4-((4-((5-amino-7-(butylamino)-2H-pyrazolo[4,3-d]pyrimidin-2-yl)methyl)-3,5-dimethoxybenzyl)(methyl)amino)butyl)oleamide], the concentration giving a half-maximal response (EC50) was 503 nM on human TLR7 and 163 nM on human TLR8.

As to `CCCCCCCCCCCCCCCCCC(=O)NCCCCN(C)Cc1cc(OC)c(Cn2cc3nc(N)nc(NCCCC)c3n2)c(OC)c1` [Compound C-4, N-(4-((4-((5-amino-7-(butylamino)-2H-pyrazolo[4,3-d]pyrimidin-2-yl)methyl)-3,5-dimethoxybenzyl)(methyl)amino)butyl)stearamide], the EC50 is 4950 nM on human TLR7 and 1170 nM on human TLR8.

With `CCCCCCCCCCCCCCCCCC(=O)NCCCC(=O)N(C)Cc1cc(OC)c(Cn2cc3nc(N)nc(NCCCC)c3n2)c(OC)c1` [Compound C-5, N-(4-((4-((5-amino-7-(butylamino)-2H-pyrazolo[4,3-d]pyrimidin-2-yl)methyl)-3,5-dimethoxybenzyl)(methyl)amino)-4-oxobutyl)stearamide], the EC50 on human TLR7 was 639 nM; at human TLR8, 93.2 nM.
